Data taken from a melting point compilation (Tetko et al.; mined from patent text by program, amines drawn as free bases though some values may be those of a salt).

First: CC(C)(C)NC(=O)[C@@H]1CC(=O)CN1C(=O)[C@@H](O)[C@H](Cc1ccccc1)NC(=O)[C@H](CC(N)=O)NC(=O)OCc1ccccc1
Second: CC(=O)OC1O[C@H](CC#N)[C@@H](OC(=O)c2ccccc2)[C@H]1OC(=O)c1ccccc1 (stereo partly drawn)
The melting point of the first is lower: 116 to 120 °C for the first, 124 to 126 °C for the second.

First: CCOC(=O)COc1ccc2cc(-c3cc4ccccc4s3)ccc2c1Cl
Second: CCOC(=O)[C@H](Cc1cccc(Oc2ccc3ccccc3c2)c1)NC(=O)C(F)(F)F
The melting point of the first is higher: 187 to 188 °C for the first, 78 to 80 °C for the second.

Compared with `N#CC1CN1C(=O)NC(=O)CC1CCCCC1` (stereo not drawn), `CC(=O)c1ccc(C2CCC(CC(=O)NC3CCN(Cc4ccc(Cl)c(Cl)c4)CC3)CC2)cc1` (stereo not drawn) is higher in melting point: 142 to 144 °C for the first, 168 °C for the second.

First: CCCCCCSc1nn2c(=O)cc(O)nc2s1
Second: CCCCCc1nc(N(C)C)nc(C)c1O
The melting point of the first is higher: 187 to 192 °C for the first, 61 to 62 °C for the second.

First: Cc1cc(C)cc(-c2c(O)c3ccc(Cl)cc3[nH]c2=O)c1
Second: Cc1cccc2c(=O)n(S(=O)(=O)c3ccc(Cl)cc3)c(=O)[nH]c12
The melting point of the first is higher: 369 °C for the first, 221 to 225 °C for the second.

Compared with `CC12CC(=O)NN=C1c1ccc(N)cc1C2` (stereo not drawn), `COc1ccc2c(c1)C(=O)C(C)(C)C(=O)N2` is lower in melting point: 222 °C for the first, 169 to 170 °C for the second.

Compared with `CC(C)(C)OC(=O)C=Cc1cnc2ccccc2c1`, `CC(C)(C)C(=O)Nc1ccncc1C(=NN)c1ccccc1F` is lower in melting point: 128 to 129 °C for the first, 78 to 82 °C for the second.

Compared with `Cc1nc(NC(=O)c2cnn3c(C(F)(F)F)cc(-c4ccc(C(F)(F)F)c(OCC(F)(F)F)c4)nc23)sc1S(=O)(=O)NC(C)(C)CO`, `Cc1ccc(C(=O)Nc2ccc(-n3ccnc3C)cc2C(F)(F)F)cc1Nc1nccc(-c2cccnc2)n1` is lower in melting point: 275 °C for the first, 154 to 163 °C for the second.

First: O=C(c1cccc(C(F)(F)F)c1)c1cc2cccc(Br)c2s1
Second: O=C(O)COCc1cc2cc(C(F)(F)F)ccc2n1S(=O)(=O)c1ccccc1
The melting point of the first is lower: 135 to 136 °C for the first, 158 to 160 °C for the second.

First: Cc1cccc(C)c1NCCCNCC(O)COc1ccc(O)cc1 (stereo not drawn)
Second: COc1ccc(C(=O)c2cccc(Br)c2F)cc1
The melting point of the first is higher: 97 to 98 °C for the first, 88 to 90 °C for the second.

First: CN(C(CCn1c(=O)[nH]c2ncccc2c1=O)C(=O)NO)S(=O)(=O)c1ccc(Oc2ccccc2)cc1 (stereo not drawn)
Second: Cc1oc(-c2ccccc2)nc1CCOc1ccc(C[C@H](NC(=O)C=Cc2ccco2)C(=O)O)cc1
The melting point of the first is lower: 125 to 126 °C for the first, 199 to 201 °C for the second.

Compared with `Cc1c(Cl)nc(Cl)nc1Cl`, `Clc1cnnc(Cl)c1Cl` is lower in melting point: 67 to 68 °C for the first, 61 °C for the second.

Compared with `COc1ccc2[nH]cc(C3=CCN(C[C@H](O)COc4cccc5[nH]ccc45)CC3)c2c1`, `COc1ccc(CCNc2nccc(-c3cccc(NC(C)=O)c3)n2)cc1OC` is higher in melting point: 105 to 110 °C for the first, 146 to 148 °C for the second.

`Nc1nc(-c2cc(Cl)ccc2Cl)nc(N2CCC(CO)CC2)n1` and `CCCN(CCC)CCCC1CCN(CCNC(=O)N2c3cc(Cl)ccc3C(=O)Nc3cccnc32)CC1` cannot be ordered by melting point: 173 to 175 °C for the first, 174 to 175 °C for the second.

First: Cc1ccc(NC=CS(=O)(=O)F)cc1
Second: CCCCCCCCC(=O)Nc1ccc([N+](=O)[O-])cc1
The melting point of the first is lower: 61 to 65 °C for the first, 76 to 76.5 °C for the second.

First: Clc1cccc(Nc2nccc(-c3ccnc(Cl)c3)n2)c1
Second: CC(=O)N(C)c1cccc(-c2ccc3nnc(N)n3n2)c1
The melting point of the first is lower: 144 to 147 °C for the first, 196 to 197 °C for the second.

Compared with `COc1ccc(/C=C/C(=O)c2ccc(C(=O)O)cc2)cc1-c1cccs1`, `O=C(NC=C(c1ccccc1)c1ccccc1)c1sc2ccc(F)cc2c1O` is lower in melting point: 219 to 220 °C for the first, 186 to 189 °C for the second.

Compared with `O=C(Nc1ccccc1)Oc1ccccc1`, `Cc1cn(C(C)(C(=O)N(C)C)c2ccccc2)nc1-c1ccccc1Cl` (stereo not drawn) is lower in melting point: 123 to 124 °C for the first, 96 to 99 °C for the second.

First: Cc1c(C(=O)OC(C)(C)C)c(O)cc2c1C(=O)c1c(O)cccc1C2=O
Second: CCOC(=O)c1ccc(-c2[nH]nc3c2C(=O)c2c(NC(=O)NN4CCN(C)CC4)cccc2-3)s1
The melting point of the first is lower: 207 °C for the first, 249 °C for the second.

First: O=C(NCc1ccc(Cl)cc1)c1cn(CCN2CCCCC2)c2ccc(C#CCO)cc2c1=O
Second: CCn1cc(C(=O)O)c(=O)c2cc(F)c(N3CC4CC3CN4Cc3ccccc3)c(F)c21 (stereo not drawn)
The melting point of the first is lower: 176 to 180 °C for the first, 195 to 198 °C for the second.

First: CCCn1cc(-c2ccc3cc4c(cc3c2)C(C)(C)CCC4(C)C)cc1C(=O)O
Second: COc1ccc(-c2cc(-c3cc(C)ns3)c(=O)n(C)c2-c2ccncc2)cc1
The melting point of the first is lower: 143 to 145 °C for the first, 195 to 198 °C for the second.

First: CCOC(=O)c1ccc2cc(I)ccc2n1
Second: CCOC(=O)CNc1ncccc1NC(=O)c1ccc(Br)cc1
The melting point of the first is lower: 119 to 121 °C for the first, 153 to 154 °C for the second.

First: O=C1Cc2cccc(C(=O)c3ccc(Cl)cc3)c2N1
Second: NC(=O)c1coc2c1C(=O)CC(c1ccccc1)C2 (stereo not drawn)
The melting point of the first is lower: 186 °C for the first, 252 to 253 °C for the second.

Compared with `CCCCCCCCCCCCCCCCCCOc1cccc(N(CC(=O)OC)CC(=O)OC)c1`, `CCCCCCCCCCCCOC(=O)NS(=O)(=O)Cl` is lower in melting point: 75 to 77 °C for the first, 62 to 63 °C for the second.

First: CCOc1cc([C@@H](CCN(C=O)OC(C)=O)N2Cc3cccc(NC(=O)C(C)C)c3C2=O)ccc1OC
Second: CCCc1ccnc2c(=O)[nH]c(-c3cc(S(=O)(=O)N4CCN(C)CC4)ccc3OCC)nc12
The melting point of the first is lower: 72 to 74 °C for the first, 211 to 212 °C for the second.

Compared with `Fc1ccc(N2CCN(Cc3cn4cc(Br)ccc4n3)CC2)cc1`, `CCOC(=O)CN1CCN(c2ccccc2[N+](=O)[O-])CC1` is higher in melting point: 110 to 112 °C for the first, 122 °C for the second.

Compared with `Cc1nccn1-c1cnc2[nH]cc(C(=O)C(C)(C)C)c2n1`, `COC(=O)c1sccc1S(=O)(=O)NC(=O)Nc1nc(C)cc(OC)n1` is lower in melting point: 247 to 249 °C for the first, 165 to 173 °C for the second.

Compared with `Clc1ccccc1N1CCN=C1C(Cn1ccnc1)c1ccccc1` (stereo not drawn), `Nc1nc2cc(S(=O)(=O)c3ccccc3)ccc2s1` is higher in melting point: 118 to 122 °C for the first, 278 to 280 °C for the second.

First: COC(=O)CCC(=O)c1cc(OC)ccc1OCC1CO1 (stereo not drawn)
Second: C=C(Cc1ccc(OC)cc1)C(=O)O
The melting point of the first is lower: 50 to 51.5 °C for the first, 88 to 91 °C for the second.

First: CC(C)(C)c1cc(Oc2ccc(N)c(O)c2)ccc1Oc1ccc(N)c(O)c1
Second: Cc1oc(-c2ccccc2)nc1COc1ccc2c(c1)CCC(C=C1SC(=O)NC1=O)=C2
The melting point of the first is lower: 110 to 113 °C for the first, 271 to 272 °C for the second.

Compared with `Cc1ccc2c(c1)C=C(C(=O)O)C(C(F)(F)F)O2` (stereo not drawn), `CCOC(=O)C=C(C)Nc1cc(C)ccc1C` is lower in melting point: 192 to 193 °C for the first, 67 °C for the second.

First: CCCCOC(=O)Nc1nc2ccccc2c2c1nc(CC)n2CCCCNS(C)(=O)=O
Second: CCC(=O)c1ccc(CCNS(=O)(=O)c2ccccc2)cc1
The melting point of the first is higher: 164 to 166 °C for the first, 116 °C for the second.

Compared with `Cc1cc(C(C)(C)C)c(O)c([N+](=O)[O-])c1[N+](=O)[O-]`, `CC(C)Cc1cc2c(s1)C(C(=O)O)CC2=O` (stereo not drawn) is lower in melting point: 104 to 105 °C for the first, 80 °C for the second.

First: CC(C)c1ccc(CCCC(=O)O)cc1
Second: CC(C(=O)N(C)C)n1cc(C#N)c(-c2ccccc2)n1 (stereo not drawn)
The melting point of the first is lower: 50 to 51 °C for the first, 143 to 146 °C for the second.

First: COc1ccc2[nH]c(S(=O)Cc3cc(N(C)C)c(F)cn3)nc2c1 (stereo not drawn)
Second: FC(F)(F)c1cc(-c2ncn(CCCN3CCOCC3)c2-c2ccncc2)cc(C(F)(F)F)c1
The melting point of the first is lower: 99 to 102 °C for the first, 136 to 138 °C for the second.

First: CCOC(=O)c1oc(SC)c2c1CCCC2=O
Second: NC=C1Cc2ccccc2C1=O
The melting point of the first is lower: 123 to 124 °C for the first, 163 to 165 °C for the second.

`CCCCC[C@H]1CC[C@H](CC[C@H]2CC[C@H](C#N)CC2)CC1` gave a melting point of 56.3 °C.
